Source: patent publication US20220062240A1, “METHODS OF TREATING CANCER USING A CLK INHIBITOR” (BioSplice Therapeutics, Inc., priority 2018, published 2022)
Read-outs that look alike come from different tables or passages of the source.

Tests used:
[1] = biological target: CLK3 (Homo sapiens, UniProt P49761); assay: CLK3 kinase activity assay (Z-lyte, Ser/Thr 18 peptide)
[2] = tested on: haematopoietic & lymphoid tumors (13 cell lines); assay: CellTiter-Glo Viability Assay, haematopoietic & lymphoid tumors; assay type: cell-based; details: Homo sapiens, inhibition of cancer cell proliferation
[3] = tested on: pancreatic cancer (8 cell lines); assay: CellTiter-Glo Viability Assay, pancreatic cancer; assay type: cell-based; details: Homo sapiens, inhibition of cancer cell proliferation
[4] = tested on: all 50 cell lines; assay: CellTiter-Glo Viability Assay, average across all cell lines; assay type: cell-based; details: Homo sapiens; across all 50 cell lines; read-out: average EC50 for inhibition of cancer cell proliferation
Outline: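 Luminescent ATP read-out (CellTiter-Glo) after a 4-day compound exposure at 37° C served as the viability measure. Cells were seeded at 300-3,000/well, compound wells run in duplicate against DMSO controls, and EC50 values came from fitted dose-response curves.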

[5] = tested on: lung cancer (4 cell lines); assay: CellTiter-Glo Viability Assay, lung cancer; assay type: cell-based; details: Homo sapiens, inhibition of cancer cell proliferation
[6] = tested on: liver cancer (3 cell lines); assay: CellTiter-Glo Viability Assay, liver cancer; assay type: cell-based; details: Homo sapiens, inhibition of cancer cell proliferation
[7] = tested on: MDA-MB-231-Luc; assay: CellTiter-Glo Viability Assay, breast cancer; assay type: cell-based; details: Homo sapiens, 96 h; MDA-MB-231-Luc, breast cancer, four days; read-out: EC50
[8] = tested on: CAMA1; assay: CellTiter-Glo Viability Assay, breast cancer; assay type: cell-based; details: Homo sapiens, CAMA-1, 96 h; CAMA1, breast cancer, four days; read-out: EC50
[9] = tested on: ZR-75-1; assay: CellTiter-Glo Viability Assay, breast cancer; assay type: cell-based; details: Homo sapiens, 96 h; ZR-75-1, breast cancer, four days; read-out: EC50
[10] = tested on: MCF7; assay: CellTiter-Glo Viability Assay, breast cancer; assay type: cell-based; details: Homo sapiens, 96 h; MCF7, breast cancer, four days; read-out: EC50
[11] = tested on: DU4475; assay: CellTiter-Glo Viability Assay, breast cancer; assay type: cell-based; details: Homo sapiens, DU-4475, 96 h; DU4475, breast cancer, four days; read-out: EC50
[12] = tested on: HCC1599; assay: CellTiter-Glo Viability Assay, breast cancer; assay type: cell-based; details: Homo sapiens, 96 h; HCC1599, breast cancer, four days; read-out: EC50
[13] = tested on: T47D; assay: CellTiter-Glo Viability Assay, breast cancer; assay type: cell-based; details: Homo sapiens, 96 h, breast cancer, four days, read-out: EC50
[14] = tested on: BT-549; assay: CellTiter-Glo Viability Assay, breast cancer; assay type: cell-based; details: Homo sapiens, 96 h; BT-549, breast cancer, four days; read-out: EC50
[15] = biological target: T1, CLK2 (Homo sapiens, UniProt P49760); assay: CLK2 kinase activity assay (Z-lyte, Ser/Thr 6 peptide); assay type: biochemical; details: recombinant CLK2 kinase, ATP 60 μM; read-out: EC50
T1 construct: purchased Thermo Fisher (Life Technologies), Z'-LYTE Kinase Assay Kits
Experimental: All reactions were performed in duplicate.

[16] = tested on: colorectal cancer (6 cell lines); assay: CellTiter-Glo Viability Assay, colorectal cancer; assay type: cell-based; details: Homo sapiens, inhibition of cancer cell proliferation
[17] = tested on: prostate cancer (5 cell lines); assay: CellTiter-Glo Viability Assay, prostate cancer; assay type: cell-based; details: Homo sapiens
[18] = tested on: ovarian cancer (4 cell lines); assay: CellTiter-Glo Viability Assay, ovarian cancer; assay type: cell-based; details: Homo sapiens, inhibition of cancer cell proliferation

T1 sequence (P49760 whole entry): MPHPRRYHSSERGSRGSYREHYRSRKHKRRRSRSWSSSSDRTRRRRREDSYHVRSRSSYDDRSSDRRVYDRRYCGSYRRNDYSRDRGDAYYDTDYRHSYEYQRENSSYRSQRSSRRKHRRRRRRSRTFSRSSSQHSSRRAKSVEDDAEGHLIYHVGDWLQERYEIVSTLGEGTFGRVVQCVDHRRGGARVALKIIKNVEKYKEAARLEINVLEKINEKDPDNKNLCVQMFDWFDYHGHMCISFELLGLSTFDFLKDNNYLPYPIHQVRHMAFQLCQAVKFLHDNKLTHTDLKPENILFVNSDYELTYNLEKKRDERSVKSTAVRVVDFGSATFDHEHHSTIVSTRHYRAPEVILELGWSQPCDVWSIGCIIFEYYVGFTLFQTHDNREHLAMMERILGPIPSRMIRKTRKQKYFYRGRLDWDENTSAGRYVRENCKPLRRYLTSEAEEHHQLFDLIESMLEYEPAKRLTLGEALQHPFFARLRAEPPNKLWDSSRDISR
Sequence of CLK3 (P49761 whole entry): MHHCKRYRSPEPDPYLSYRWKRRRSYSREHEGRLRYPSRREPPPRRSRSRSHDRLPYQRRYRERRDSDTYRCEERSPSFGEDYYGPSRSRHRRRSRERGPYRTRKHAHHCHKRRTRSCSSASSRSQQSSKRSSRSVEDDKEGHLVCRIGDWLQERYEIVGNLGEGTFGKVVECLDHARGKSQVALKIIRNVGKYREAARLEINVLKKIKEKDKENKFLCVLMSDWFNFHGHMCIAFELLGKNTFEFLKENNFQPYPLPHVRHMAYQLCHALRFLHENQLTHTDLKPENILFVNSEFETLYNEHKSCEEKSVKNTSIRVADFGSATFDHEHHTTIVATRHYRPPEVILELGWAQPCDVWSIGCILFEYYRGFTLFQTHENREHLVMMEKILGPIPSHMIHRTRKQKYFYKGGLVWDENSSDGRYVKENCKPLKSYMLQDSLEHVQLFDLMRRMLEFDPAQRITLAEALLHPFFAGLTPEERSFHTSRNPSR

EC50 [1]: 2.5 nM
EC50 ([2]; DND41, DND-41 cell line, read-out: Haematopoietic & Lymphoid tumors, EC50 (μM) DND-41): 0.894 µM
EC50 ([2]; MV4-11, MV-4-11 cell line, read-out: Haematopoietic & Lymphoid tumors, EC50 (μM) MV-4-11): 0.147 µM
EC50 ([2]; Rec1, REC-1 cell line, read-out: Haematopoietic & Lymphoid tumors, EC50 (μM) REC-1): 2.31 µM
EC50 ([2]; SU-DHL-4, SUDHL4 cell line, read-out: Haematopoietic & Lymphoid tumors, EC50 (μM) SUDHL4): 1.23 µM
EC50 ([2]; HL-60 cell line, read-out: Haematopoietic & Lymphoid tumors, EC50 (μM) HL-60): 3.06 µM
EC50 ([2]; JM1 cell line, read-out: Haematopoietic & Lymphoid tumors, EC50 (μM) JM1): 0.409 µM
EC50 ([2]; JURKAT, Clone E6-1 cell line, read-out: Haematopoietic & Lymphoid tumors, EC50 (μM) JURKAT, Clone E6-1): 1.77 µM
EC50 ([2]; JeKo-1 cell line, read-out: Haematopoietic & Lymphoid tumors, EC50 (μM) JeKo-1): 0.455 µM
EC50 ([2]; KASUMI-1 cell line, read-out: Haematopoietic & Lymphoid tumors, EC50 (μM) KASUMI-1): 2.01 µM
EC50 ([2]; Loucy cell line, read-out: Haematopoietic & Lymphoid tumors, EC50 (μM) Loucy): 0.952 µM
EC50 ([2]; MOLT-4 cell line, read-out: Haematopoietic & Lymphoid tumors, EC50 (μM) MOLT-4): 2.52 µM
EC50 ([2]; TF-1 cell line, read-out: Haematopoietic & Lymphoid tumors, EC50 (μM) TF-1): 2.92 µM
EC50 ([2]; TOLEDO cell line, read-out: Haematopoietic & Lymphoid tumors, EC50 (μM) TOLEDO): 0.317 µM
EC50 ([3]; BXPC-3, BxPC3 cell line, read-out: Pancreatic cancer, EC50 BxPC3): 3300 nM
EC50 ([3]; CAPAN-1, Capan1 cell line, read-out: Pancreatic cancer, EC50 Capan1): 2760 nM
EC50 ([3]; Capan-2, Capan2 cell line, read-out: Pancreatic cancer, EC50 Capan2): > 3500 nM
EC50 ([3]; MIA PaCa-2 cell line, read-out: Pancreatic cancer, EC50 MIA PaCa-2): 1000 nM
EC50 ([3]; PANC 05.04 cell line, read-out: Pancreatic cancer, EC50 PANC 05.04): > 3500 nM
EC50 ([3]; PANC-1 cell line, read-out: Pancreatic cancer, EC50 PANC-1): > 3500 nM
EC50 ([3]; UPAFII cell line, read-out: Pancreatic cancer, EC50 UPAFII): 1800 nM
EC50 ([5]; A-427, A427 cell line, read-out: Lung cancer, EC50 (μM) A427): 0.875 µM
EC50 ([5]; HCC78, HCC-78 cell line, read-out: Lung cancer, EC50 (μM) HCC-78): > 3.5 µM
EC50 ([5]; NCI-H460 cell line, read-out: Lung cancer, EC50 (μM) NCI-H460): > 3.5 µM
EC50 ([5]; NCI-H522 cell line, read-out: Lung cancer, EC50 (μM) NCI-H522): 1.17 µM
EC50 ([6]; SNU-398, SNU398 cell line, read-out: Liver cancer, EC50 SNU398): 381 nM
EC50 ([6]; HEPG2 cell line, read-out: Liver cancer, EC50 HEPG2): 2200 nM
EC50 ([6]; PLC/PRF/5 cell line, read-out: Liver cancer, EC50 PLC/PRF/5): > 3500 nM
EC50 [7]: 2860 nM
EC50 [8]: 1910 nM
EC50 [9]: 3.41 µM
EC50 [10]: > 3.5 µM
EC50 [11]: 1000 nM
EC50 [12]: 146 nM
EC50 [13]: > 3.5 µM
EC50 [14]: 1310 nM
EC50 [15]: 0.1 nM
EC50 ([16]; HCT-116, HCT116 cell line, read-out: Colorectal cancer, EC50 (μM) HCT116): 1.17 µM
EC50 ([16]; HT-29, HT29 cell line, read-out: Colorectal cancer, EC50 (μM) HT29): 1.54 µM
EC50 ([16]; SW-620, SW620 cell line, read-out: Colorectal cancer, EC50 (μM) SW620): 0.886 µM
EC50 ([16]; DLD-1 cell line, read-out: Colorectal cancer, EC50 (μM) DLD-1): 2.21 µM
EC50 ([16]; SW48 cell line, read-out: Colorectal cancer, EC50 (μM) SW48): 0.63 µM
EC50 ([16]; SW480 cell line, read-out: Colorectal cancer, EC50 (μM) SW480): 1.57 µM
EC50 ([17]; DU-145, read-out: Prostate cancer EC50 Du-145): 1870 nM
EC50 ([17]; PC-3, PC3 cell line, inhibition of cancer cell proliferation, read-out: Prostate cancer EC50 PC3): 1030 nM
EC50 ([17]; 22Rv1 cell line, inhibition of cancer cell proliferation, read-out: Prostate cancer EC50 22Rv1): 1140 nM
EC50 ([17]; LNCap clone FGC cell line, inhibition of cancer cell proliferation, read-out: Prostate cancer EC50 LNCap clone FGC): > 3500 nM
EC50 ([17]; VCaP (Sigma) cell line, inhibition of cancer cell proliferation, read-out: Prostate cancer EC50 VCaP (Sigma)): 2000 nM
EC50 ([18]; PA-1, PA1 cell line, read-out: Ovarian cancer, EC50 (μM) PA1): 1.29 µM
EC50 ([18]; TOV112D, TOV-112D cell line, read-out: Ovarian cancer, EC50 (μM) TOV-112D): 1.68 µM
EC50 ([18]; OV-90 cell line, read-out: Ovarian cancer, EC50 (μM) OV-90): > 3.5 µM
EC50 ([18]; OVCAR-3 cell line, read-out: Ovarian cancer, EC50 (μM) OVCAR-3): 0.89 µM
SMILES: c1cncc(-c2ccc3[nH]nc(-c4cc5c(-c6cccnc6)cncc5[nH]4)c3c2)c1 [Compound 48]
EC50 [4]: 3.22 µM
